Assays:
[1] = Glutathione binding and depletion in vitro; format: in vitro ADME
Description: No unique human metabolite was identified. Preliminary evaluations of metabolism in the plasma, bile, and urine of rats, dogs, and monkeys indicated metabolic processes of oxidation, glutathione binding, and hydrolysis.

Th17 cells = experiment: Th17 development from enriched CD4+ T cells; format: cell-based; details: anti-TCRβ plus anti-CD28, skewing cytokines, 4 days
Procedure: Enriched CD4^+ T cells are plated on 24-well culture dishes that have been precoated 2 hr with 250 μL anti-TCRβ (0.5 μg/mL) plus anti-CD28 (5 μg/mL) at 37° C. in PBS. The cells are then supplemented with media containing BTK inhibitors along with the skewing cytokines as indicated in the following. The Th17 and Treg cultures are grown for 4 days before analysis. The cells are maintained for an additional 3 days with skewing cytokines (Th17; 20 ng/mL IL-6, 0.5 ng/mL TGF-β, 5 μg/mL IL-4, 5 μg/mL IFN-γ and Treg; 0.5 ng/mL TGF-β, 5 μg/mL IL-4, 5 μg/mL IFN-γ) and are supplemented with IL2 as a growth factor.

## CC#CC(=O)N1CCC[C@H]1c1nc(-c2ccc(C(=O)Nc3ccccn3)cc2)c2c(N)nccn12 [Formula (2), (S)-4-(8-amino-3-(1-(but-2-ynoyl)pyrrolidin-2-yl)imidazo[1,5-α]pyrazin-1-yl)-N-(pyridin-2-yl)benzamide]
[1]
  glutathione binding and depletion: binds to glutathione but does not deplete glutathione
Th17 cells
  effect on Th17 cells / Th17 development: no adverse effect

From patent US20240197742A1, “Therapeutic Combinations of a CD19 Inhibitor and a BTK Inhibitor” (Acerta Pharma B.V., priority 2015, published 2024)
